Measurements: ChEMBL document CHEMBL1201862, “PubChem BioAssay data set” (2004)
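Five concentrations, 48 hours, 96-well plates. GI50 = concentration required for 50% inhibition of growth.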 The source made the active and inactive calls. Cut-off read from the data, not from the text of the source: active = GI50 up to about 1.1 µM and inactive = higher.

How the values were obtained:
Test in all cases: inhibition of tumour cell growth, NCI panel, 48 h
[1] = system: Hs-578T
[2] = system: 786-0
[3] = system: UO-31
[4] = system: HCT-116
[5] = system: SN12C
[6] = system: UACC-62
[7] = system: IGROV-1
[8] = system: SW-620
[9] = system: LOX IMVI
[10] = system: T47D
[11] = system: OVCAR-4
[12] = system: CAKI-1
[13] = system: HOP-62
[14] = system: SF-295
[15] = system: M14
[16] = system: MDA-MB-435
[17] = system: NCI-H226
[18] = system: NCI-H522
[19] = system: Malme-3M
[20] = system: NCI-H23

Row | SMILES | GI50 [1] | GI50 [2] | GI50 [3] | GI50 [4] | GI50 [5] | GI50 [6] | GI50 [7] | GI50 [8] | GI50 [9] | GI50 [10] | GI50 [11] | GI50 [12] | GI50 [13] | GI50 [14] | GI50 [15] | GI50 [16] | GI50 [17] | GI50 [18] | GI50 [19] | GI50 [20]
1 | CCOC(=O)C1(C(=O)OCC)C[C@H]2CON=C2[C@@H]1c1ccc(C(F)(F)F)cc1 | 98.6 µM (inactive) | 46.9 µM (inactive) | 14.2 µM (inactive) | 29.6 µM (inactive) | 94.8 µM (inactive) | 96.2 µM (inactive) | 12.5 µM (inactive) | 68.1 µM (inactive) | 16.6 µM (inactive) | 16.7 µM (inactive) | 17.7 µM (inactive) | 30.9 µM (inactive) | 21.9 µM (inactive) | 41.5 µM (inactive) | 55.1 µM (inactive) | 38.6 µM (inactive) | 34.9 µM (inactive) | 24.7 µM (inactive) | > 100 µM (inactive) | 58.7 µM (inactive)
2 | COc1cc(/N=N/c2cccc(S(N)(=O)=O)c2)c2ccccc2c1N | 2.67 µM (inactive) | 13.4 µM (inactive) | 15.3 µM (inactive) | 14.7 µM (inactive) | 8.89 µM (inactive) | 2.07 µM (inactive) | 10.3 µM (inactive) | 23.9 µM (inactive) | 3.4 µM (inactive) | 13.2 µM (inactive) | 13.4 µM (inactive) | 7.06 µM (inactive) | 7.35 µM (inactive) | 10.5 µM (inactive) | 1.91 µM (inactive) | 2 µM (inactive) | 19.9 µM (inactive) | 12.1 µM (inactive) | 1.7 µM (inactive) | 2.02 µM (inactive)
3 | CCN1C=C/C(=C\C=C\c2cc[n+](CC)c3ccccc23)c2ccccc21 | 4.02 µM (inactive) | 4.9 µM (inactive) | 15.2 µM (inactive) | 2.75 µM (inactive) | 3.63 µM (inactive) | 10.8 µM (inactive) | 3.59 µM (inactive) | 4.62 µM (inactive) | – | 5.93 µM (inactive) | 4.46 µM (inactive) | – | 3.24 µM (inactive) | 3.58 µM (inactive) | 5.02 µM (inactive) | 4.21 µM (inactive) | 3.36 µM (inactive) | 7.43 µM (inactive) | 13.4 µM (inactive) | 2.87 µM (inactive)
4 | COC(=O)c1c2c(cc3c1CC1(Cc4ccc(C(C)=O)cc4C1)C3)CCC2 (configuration not stated) | 28.4 µM (inactive) | 51.8 µM (inactive) | 52.4 µM (inactive) | 36.3 µM (inactive) | 19.7 µM (inactive) | 35.7 µM (inactive) | 87.5 µM (inactive) | 28.3 µM (inactive) | 21.1 µM (inactive) | 31.1 µM (inactive) | 41.4 µM (inactive) | 53.3 µM (inactive) | 91.2 µM (inactive) | 40.5 µM (inactive) | – | 6.92 µM (inactive) | 67.1 µM (inactive) | 21 µM (inactive) | 15.7 µM (inactive) | 46.5 µM (inactive)
5 | O=C(c1ccccc1)N1C(=S)N(c2ccc([N+](=O)[O-])cc2)C(=N/c2ccccc2)/C1=N\c1ccccc1 | > 100 µM (inactive) | > 100 µM (inactive) | > 100 µM (inactive) | – | > 100 µM (inactive) | 97.5 µM (inactive) | > 100 µM (inactive) | > 100 µM (inactive) | – | > 100 µM (inactive) | – | > 100 µM (inactive) | > 100 µM (inactive) | > 100 µM (inactive) | > 100 µM (inactive) | > 100 µM (inactive) | > 100 µM (inactive) | 9.06 µM (inactive) | > 100 µM (inactive) | > 100 µM (inactive)
6 | CC(C)Oc1cc(O)c2c(c1)OCC=C2CCC(=O)O | 42.2 µM (inactive) | 26.3 µM (inactive) | 24.1 µM (inactive) | 20.4 µM (inactive) | 21.3 µM (inactive) | 26.9 µM (inactive) | 35.7 µM (inactive) | 27.8 µM (inactive) | 33.1 µM (inactive) | 39.3 µM (inactive) | 39.3 µM (inactive) | 37.2 µM (inactive) | 30.5 µM (inactive) | 43.5 µM (inactive) | 25.9 µM (inactive) | 23.8 µM (inactive) | 15.5 µM (inactive) | 21.2 µM (inactive) | – | 37.2 µM (inactive)
7 | O=C(O)CCC(N/N=N/c1ccc(-c2nc3ccccc3[nH]2)cc1)C(=O)O (configuration not stated) | 44.4 µM (inactive) | 52.1 µM (inactive) | 13.6 µM (inactive) | 70.8 µM (inactive) | 60.4 µM (inactive) | – | 20.8 µM (inactive) | > 100 µM (inactive) | 43.1 µM (inactive) | 30.7 µM (inactive) | 66.5 µM (inactive) | 61.4 µM (inactive) | 48.8 µM (inactive) | 21.6 µM (inactive) | 54.1 µM (inactive) | 52.8 µM (inactive) | > 100 µM (inactive) | > 100 µM (inactive) | – | 71.3 µM (inactive)
8 | Cc1coc2c1[C@@H](O)[C@@]1(C)[C@H](CCC[C@@H]1C)C2 | 61.7 µM (inactive) | 34.8 µM (inactive) | – | 33.5 µM (inactive) | 24.7 µM (inactive) | 56.2 µM (inactive) | 54.6 µM (inactive) | 37.8 µM (inactive) | 43.4 µM (inactive) | 31.4 µM (inactive) | 58.7 µM (inactive) | 72.6 µM (inactive) | 40.5 µM (inactive) | 45 µM (inactive) | 18.2 µM (inactive) | 15.1 µM (inactive) | 25.5 µM (inactive) | 25.3 µM (inactive) | 30 µM (inactive) | 50.9 µM (inactive)
9 | CC(C)C1=CC(=O)C(C)(C2C(O)CC3(C)C4CC=C5C(CCC(OC6OC(CO)C(O)C(O)C6OC6OC(C)C(O)C(O)C6O)C5(C)C)C4(C)C(=O)CC23C)O1 (configuration not stated) | > 100 µM (inactive) | > 100 µM (inactive) | > 100 µM (inactive) | > 100 µM (inactive) | > 100 µM (inactive) | > 100 µM (inactive) | > 100 µM (inactive) | > 100 µM (inactive) | – | > 100 µM (inactive) | > 100 µM (inactive) | > 100 µM (inactive) | > 100 µM (inactive) | > 100 µM (inactive) | > 100 µM (inactive) | > 100 µM (inactive) | > 100 µM (inactive) | > 100 µM (inactive) | > 100 µM (inactive) | > 100 µM (inactive)
10 | COc1cc2oc(=O)ccc2cc1CC=C(C)C [SUBEROSIN] | 35.4 µM (inactive) | > 10 µM (inactive) | 21.9 µM (inactive) | 38.6 µM (inactive) | 47.6 µM (inactive) | – | 62.8 µM (inactive) | 41.3 µM (inactive) | 39.1 µM (inactive) | 15.8 µM (inactive) | 23.4 µM (inactive) | 40.6 µM (inactive) | > 100 µM (inactive) | 41.1 µM (inactive) | > 10 µM (inactive) | 43.3 µM (inactive) | 29.6 µM (inactive) | 42.3 µM (inactive) | 37.4 µM (inactive) | 52.4 µM (inactive)
11 | Nn1c(-c2ccccc2)nn(C(=O)c2ccccc2)c1=O | > 100 µM (inactive) | > 100 µM (inactive) | > 100 µM (inactive) | > 100 µM (inactive) | 87.1 µM (inactive) | – | > 100 µM (inactive) | > 100 µM (inactive) | > 100 µM (inactive) | > 100 µM (inactive) | > 100 µM (inactive) | – | > 100 µM (inactive) | > 100 µM (inactive) | > 100 µM (inactive) | > 100 µM (inactive) | > 100 µM (inactive) | > 100 µM (inactive) | > 100 µM (inactive) | > 100 µM (inactive)
12 | O=C(c1ccccc1)c1c(C(F)(F)F)[n+]([O-])c2cc(F)c(F)cc2[n+]1[O-] | 0.942 µM (active) | 0.525 µM (active) | 1.38 µM (inactive) | 0.156 µM (active) | – | 2.22 µM (inactive) | 1.6 µM (inactive) | 0.499 µM (active) | – | 1.79 µM (inactive) | 2.07 µM (inactive) | 0.807 µM (active) | 1.25 µM (inactive) | 0.946 µM (active) | 0.698 µM (active) | 1.53 µM (inactive) | 1.73 µM (inactive) | 0.746 µM (active) | 0.161 µM (active) | 0.211 µM (active)
13 | CC(=O)N(C(=O)CC(=O)N1N=C(c2ccccc2)C(/N=N/c2ccccc2[N+](=O)[O-])C1=O)c1ccc(Cl)cc1 (configuration not stated) | > 10 µM (inactive) | > 10 µM (inactive) | > 10 µM (inactive) | > 10 µM (inactive) | > 10 µM (inactive) | > 10 µM (inactive) | > 10 µM (inactive) | > 10 µM (inactive) | > 10 µM (inactive) | > 10 µM (inactive) | > 10 µM (inactive) | > 10 µM (inactive) | > 10 µM (inactive) | > 10 µM (inactive) | – | > 10 µM (inactive) | > 10 µM (inactive) | > 10 µM (inactive) | > 10 µM (inactive) | > 10 µM (inactive)
14 | COC(=O)CCC(C)[C@H]1CCC2C3C(C[C@H](OC(C)=O)[C@@]21C)[C@@]1(C)CCC2(C[C@H]1C[C@H]3OC(C)=O)OOC1(CCC(C(C)(C)C)CC1)OO2 (some centres not stated) | 5.43 µM (inactive) | 13.5 µM (inactive) | 12.4 µM (inactive) | 3.97 µM (inactive) | 58.2 µM (inactive) | – | 17.1 µM (inactive) | 12.3 µM (inactive) | 5.25 µM (inactive) | 5.71 µM (inactive) | 15.6 µM (inactive) | 12.8 µM (inactive) | 9.73 µM (inactive) | 7.53 µM (inactive) | > 100 µM (inactive) | 56 µM (inactive) | 59 µM (inactive) | 21 µM (inactive) | 64.3 µM (inactive) | 9.42 µM (inactive)
